Data published in US20230058623A1, “NOVEL HETEROARYL-TRIAZOLE COMPOUNDS AS PESTICIDES” (Bayer Aktiengesellschaft, priority 2019, published 2023).

Assays:
Type in all cases: in vivo
[1] = test system: Rhipicephalus (Boophilus) microplus larvae (strain Parkhurst, resistant against synthetic pyrethroids); assay: Rhipicephalus (Boophilus) microplus in-vitro contact test, larval cattle tick; conditions: after 48 hours, read-out: activity (efficacy: larvae dead or moribund); for pest or weed control at 1 µg/cm2, 100 g/ha: application rate 1 μg/cm^2 (=100 g/ha); for pest or weed control at 5 µg/cm2, 500 g/ha: application rate 5 μg/cm^2 (=500 g/ha)
Method: Rhipicephalus (Boophilus) microplus—In-Vitro Contact Tests Larval Cattle Tick (Strain Parkhurst, Resistant Against Synthetic Pyrethroids)
(§1) 9 mg compound is solved in 1 ml acetone and diluted with acetone to the desired concentration. 250 μL of the test solution is filled in 25 mL glass test tubes and homogeneously distributed on the inner walls by rotation and tilting on a shaking device (2 h at 30 rpm). With a compound concentration of 900 ppm, an inner surface of 44.7 cm^2 and a homogeneous distribution, a dose of 5 μg/cm^2 is achieved.
After the solvent has evaporated, each test tube is filled with 20-50 cattle tick larvae (Rhipicephalus microplus), closed with a perforated lid and incubated in a horizontal position at 85% relative humidity and 27° C. in an incubator. After 48 hours efficacy is determined. The larvae are patted on the ground of the tubes and negative geotactic behavior is recorded.
An efficacy of 100% means all larvae are dead or moribund; 0% means no larvae are dead or moribund.

[2] = test system: adult brown dog ticks (Rhipicephalus sanguineus); assay: Rhipicephalus sanguineus in-vitro contact test, adult brown dog ticks; conditions: application rate 5 μg/cm^2 (=500 g/ha), after 48 hours, read-out: activity (efficacy: ticks dead or moribund)
Method: Rhipicephalus sanguineus—In-Vitro Contact Tests with Adult Brown Dog Ticks
as §1, with “mL” for “ml”
(§2) After the solvent has evaporated, each test tube is filled with 5-10 adult brown dog ticks (Rhipicephalus sanguineus), closed with a perforated lid and incubated in a lying position at room temperature and relative humidity. After 48 hours efficacy is determined. The ticks are patted on the ground of the tubes and are incubated on a heating plate at 45-50° C. for at most 5 minutes. Immotile or uncoordinated moving ticks, which are not able to escape the heat by climbing upwards, are marked as dead or moribund.
An efficacy of 100% means all ticks are dead or moribund; 0% means no ticks are dead or moribund.

[3] = test system: larvae of the banded cucumber beetle (Diabrotica balteata); assay: Diabrotica balteata spray test; conditions: 168 h, application rate 100 g/ha (=32 μg/well), after 7 days, wheat seeds, read-out: activity (efficacy: seedlings grown)
Method: Diabrotica balteata—Spray Test
(§3) To produce a suitable preparation of active compound, 1 part by weight of active compound is mixed with the stated amount of solvent, and the concentrate is diluted with water, containing an emulsifier concentration of 1000 ppm, to the desired concentration. Further test concentrations are prepared by dilution with emulsifier containing water.
Soaked wheat seeds (Triticum aestivum) are placed in a multiple well plate filled with agar and some water and are incubated for 1 day to germinate (5 seeds per well). The germinated wheat seeds are sprayed with a test solution containing the desired concentration of the active ingredient. Afterwards each unit is infected with 10-20 larvae of the banded cucumber beetle (Diabrotica balteata).
After 7 days efficacy in % is determined. 100% means all the seedlings have grown up like in the untreated, uninfected control; 0% means none of the seedlings have grown.

[4] = test system: green peach aphid (Myzus persicae); assay: Myzus persicae spray test; conditions: foliar, 120 h, after 5 days, Chinese cabbage leaf disks; for mortality at 100 g/ha: application rate 100 g/ha, read-out: activity (mortality)
Method: Myzus persicae—Spray Test
as §3, with “solvents” for “solvent,”, “and” for “and the concentrate”
Chinese cabbage (Brassica pekinensis) leaf disks infected with all instars of the green peach aphid (Myzus persicae), are sprayed with a preparation of the active ingredient of the desired concentration.
(§4) After 5 days mortality in % is determined. 100% means all aphids have been killed and 0% means none of the aphids have been killed.

[5] = test system: adult cat fleas (Ctenocephalides felis); assay: Ctenocephalides felis in-vitro contact test, adult cat flea; conditions: application rate 5 μg/cm^2 (=500 g/ha), after 48 hours, read-out: activity (efficacy: fleas dead or moribund)
Method: Ctenocephalides felis—In-Vitro Contact Tests Adult Cat Flea
as §1, with “mL” for “ml”
as §2, with “cat fleas (Ctenocephalides felis),” for “brown dog ticks (Rhipicephalus sanguineus),”, “fleas” for “ticks”, “fleas,” for “ticks,”
An efficacy of 100% means all fleas are dead or moribund; 0% means no fleas are dead or moribund.

[6] = test system: green peach aphid (Myzus persicae); assay: Myzus persicae oral test; conditions: 120 h, read-out: activity (mortality)
Method: Solvent: 100 parts by weight acetone
To produce a suitable preparation of active compound, 1 part by weight of active compound is mixed with the stated amount of solvent, and the concentrate is diluted with water to the desired concentration.
50 μL compound solution is filled in microtiter plates and 150 μL IPL41 insect medium (33%+15% sugar) is added to obtain a total volume of 200 μL per well. Afterwards the plates are sealed with parafilm through which a mixed population of the green peach aphid (Myzus persicae) can suck on the compound preparation.
as §4

[7] = test system: fall armyworm larvae (Spodoptera frugiperda); assay: Spodoptera frugiperda spray test; conditions: 168 h, application rate 100 g/ha, after 7 days, maize leaf sections
Method: Spodoptera frugiperda—Spray Test
as §3, with “solvents” for “solvent,”, “and” for “and the concentrate”
Maize (Zea mays) leaf sections are sprayed with a preparation of the active ingredient of the desired concentration. Once dry, the leaf sections are infested with fall armyworm larvae (Spodoptera frugiperda).
After 7 days mortality in % is determined. 100% means all caterpillars have been killed and 0% means none of the caterpillars have been killed.

[8] = test system: adult engorged female ticks (Rhipicephalus microplus); assay: Rhipicephalus (Boophilus) microplus injection test; conditions: 168 h, application rate 4 μg/tick, egg deposition after 7 days, read-out: activity (efficacy: infertile eggs)
Method: Rhipicephalus (Boophilus) microplus—Injection Test
Solvent: dimethyl sulfoxide
To produce a suitable preparation of active compound, 10 mg of active compound are dissolved in 0.5 mL solvent, and the concentrate is diluted with solvent to the desired concentration.
Five adult engorged female ticks (Rhipicephalus microplus) are injected with 1 μL compound solution into the abdomen. The ticks are transferred into replica plates and incubated in a climate chamber.
After 7 days egg deposition of fertile eggs is monitored. Eggs where fertility is not visible are stored in a climate chamber till hatching after about 42 days. An efficacy of 100% means all eggs are infertile; 0% means all eggs are fertile.

Row | Structure (SMILES) | pest or weed control at 1 µg/cm2, 100 g/ha [1] [%] | pest or weed control at 5 µg/cm2, 500 g/ha [1] [%] | pest or weed control at 5 µg/cm2, 500 g/ha [2] [%] | pest or weed control at 32 µg/disc, 100 g/ha [3] [%] | mortality at 500 g/ha ([4]; application rate 500 g/ha) [%] | pest or weed control at 5 µg/cm2 [5] [%] | mortality at 4 ppm [6] [%] | mortality at 100 g/ha [7] [%] | mortality at 100 g/ha [4] [%] | pest or weed control at 0.004 mg [8] [%]
1 | C[C@H](NC(=O)c1cc(Cl)cc(C(F)(F)F)c1)c1ncnn1-c1ccc(N2CCOCC2)cn1 [Example I-43] | 100 | 100 | 100 | 100 | – | – | – | – | – | –
2 | C[C@H](NC(=O)c1cc(OC(F)(F)F)cc(C2CC2)c1)c1ncnn1-c1ccc(N2CCOCC2=O)cn1 [Example I-58] | – | – | – | – | 90 | – | – | – | – | –
3 | C[C@H](NC(=O)c1cc(C(F)(F)F)cc(C(F)(F)F)c1)c1ncnn1-c1ccc(C(=O)N2CCOC[C@H]2C)cn1 [Example I-71] | 100 | 100 | 80 | 100 | – | 100 | 100 | 100 | – | –
4 | Cc1nc([C@H](C)NC(=O)c2cc(C(F)(F)F)cc(C(F)(F)F)c2)n(-c2ccc(C(=O)N3C[C@@H](C)O[C@@H](C)C3)nn2)n1 [Example I-139] | 100 | 100 | 100 | 100 | – | – | – | – | – | –
5 | C[C@@H]1CN(C(=O)c2ccc(-n3ncnc3[C@H](C)NC(=O)c3cc(Cl)cc(S(C)(=O)=O)c3)nc2)C[C@H](C)O1 [Example I-53] | – | – | – | – | – | 100 | 100 | 100 | – | –
6 | C[C@H](NC(=O)c1cc(Cl)cc(C(F)(F)F)c1)c1ncnn1-c1ccc(N2CCSCC2=O)cn1 [Example I-55] | – | – | – | – | – | 80 | 100 | – | – | –
7 | C[C@H](NC(=O)c1cc(OC(F)(F)F)cc(C2CC2)c1)c1ncnn1-c1ccc(C(=O)N2CCOC[C@@H]2C)cn1 [Example I-66] | 100 | 100 | – | 100 | – | 100 | – | 83 | – | –
8 | Cc1nc([C@H](C)NC(=O)c2cc(Br)cc(OC(F)(F)F)c2)n(-c2ncc(C(=O)N3CCOCC3)s2)n1 [Example I-136] | 100 | 100 | 100 | – | – | – | – | 100 | – | –
9 | C[C@H](NC(=O)c1cc(C(F)(F)F)cc(C(F)(F)F)c1)c1ncnn1-c1ccc(C(=O)N(C)C2CCOCC2)cn1 [Example I-110] | 100 | 100 | – | – | – | 100 | 100 | 100 | 90 | –
10 | Cc1nc([C@H](C)NC(=O)c2cc(C(F)(F)F)cc(C(F)(F)F)c2)n(-c2ncc(C(=O)N3CCCC3)s2)n1 [Example I-16, N-[(1S)-1-{3-methyl-1-[5-(pyrrolidin-1-ylcarbonyl)-1,3-thiazol-2-yl]-1H-1,2,4-triazol-5-yl}ethyl]-3,5-bis(trifluoromethyl)benzamide] | 100 | 100 | – | 100 | – | – | 100 | 100 | – | 80
11 | Cc1nc([C@H](C)NC(=O)c2cc(C(F)(F)F)cc(C(F)(F)F)c2)n(-c2ccc(C(=O)N3CCOCC3c3ncno3)cn2)n1 (stereo partly shown) [Example I-99] | 100 | 100 | 80 | – | – | 100 | 100 | – | 90 | –
12 | CC(NC(=O)c1cc(C(F)(F)F)cc(C(F)(F)F)c1)c1nc(Br)nn1-c1ccc(C(=O)N2CCOCC2)cn1 (racemic) [Example I-86, N-[1-[5-bromo-2-[5-(morpholine-4-carbonyl)-2-pyridyl]-1,2,4-triazol-3-yl]ethyl]-3,5-bis(trifluoromethyl)benzamide] | 100 | 100 | 80 | 100 | – | – | – | 83 | – | –
13 | C[C@H](NC(=O)c1cc(OC(F)(F)F)cc(C2CC2)c1)c1ncnn1-c1ccc(N2CCOCC2)cn1 [Example I-104] | 100 | 100 | – | 100 | – | 90 | – | – | 90 | –
14 | Cc1nc([C@H](C)NC(=O)c2cc(Cl)cc(C(F)(F)F)c2)n(-c2ccc(C(=O)N3CC[C@H](O)C3)cn2)n1 [Example I-25] | – | – | – | – | – | – | 100 | – | – | 100
15 | C[C@H](NC(=O)c1cc(C(F)(F)F)cc(C(F)(F)F)c1)c1ncnn1-c1ccc(C(=O)N2CCOCC2c2ccnn2C)cn1 (stereo partly shown) [Example I-100] | 90 | 90 | – | 100 | – | 80 | – | 83 | – | –
16 | Cc1nc([C@H](C)NC(=O)c2cc(Cl)cc(C(F)(F)F)c2)n(-c2ccc(C(=O)N3CC[C@@H](O)C3)cn2)n1 [Example I-26] | – | – | – | – | – | – | 100 | – | – | 100
17 | C[C@@H]1CN(C(=O)c2cnc(-n3ncnc3[C@H](C)NC(=O)c3cc(OC(F)(F)F)cc(C4CC4)c3)nc2)C[C@H](C)O1 [Example I-148] | – | – | – | 100 | – | – | – | 100 | 90 | –
